Data on four compounds can be found in patent publication US11248234B2, “Herbicide-resistant hydroxyphenylpyruvate dioxygenases” (BASF SE, priority 2015, dated 2022).

Assay [1] has as its target Scenedesmus Short HPPD (Seq ID: 4) (Tetradesmus obliquus, UniProt A0A383WMN4, DEL398-433/N195D). The assay is described as follows: In vitro HPPD activity assay. Type of assay: biochemical. On the procedure:
(§1) HPPD produces homogentisic acid and CO2 from 4-hydroxyphenylpyruvate (4-HPP) and O2. The activity assay for HPPD is based on the analysis of homogentisic acid by reversed phase HPLC.
(§2) The assay mixture can contain 150 mM potassium phosphate buffer pH 7.0, 50 mM L-ascorbic acid, 100 μM Catalase (Sigma-Aldrich), 1 μM FeSO4 and 0.2 units of purified mutated HPPD enzyme in a total volume of 505 μl. 1 unit is defined as the amount of enzyme that is required to produce 1 nmol of HGA per minute at 20° C.
(§3) After a preincubation of 30 min the reaction is started by adding 4-HPP to a final concentration of 0.05 mM. The reaction is allowed to proceed for 45 min at room temperature. The reaction is stopped by the addition of 50 μl of 4.5 M phosphoric acid. The sample is filtered using a […] pore size PVDF filtration device.
(§4) 5 μl of the cleared sample is analyzed on an UPLC HSS T3 column (particle size 1.8 μm, dimensions 2.1×50 mm; Waters) by isocratic elution using 90% 20 mM NaH2PO4 pH 2.2, 10% methanol (v/v).
(§5) HGA is detected electrochemically at 750 mV (mode: DC; polarity: positive) and quantified by integrating peak areas (Empower software; Waters).
(§6) Inhibitors are dissolved in DMSO (dimethylsulfoxide) to a concentration of 0.5 mM. From this stock solution serial five-fold dilutions are prepared in DMSO, which are used in the assay. The respective inhibitor solution accounts for 1% of the assay volume. Thus, final inhibitor concentrations range from 5 μM to 320 pM, respectively. Activities are normalized by setting the uninhibited enzyme activity to 100%. IC50 values are calculated using non-linear regression.
(§7) Using methods which are described in the above examples or well known in the art, purified, recombinant mutated HPPD enzymes are characterized with respect to their kinetic properties and sensitivity towards HPPD inhibiting herbicides. Apparent michaelis constants (Km) and maximal reaction velocities (Vmax) are calculated by non-linear regression with the software GraphPad Prism 5 (GraphPad Software, La Jolla, USA) using a substrate inhibition model. Apparent kcat values are calculated from Vmax assuming 100% purity of the enzyme preparation. Weighted means (by standard error) of Km and IC50 values are calculated from at least three independent experiments. The Cheng-Prusoff equation for competitive inhibition (Cheng, Y. C.; Prusoff, W. H. Biochem Pharmacol 1973, 22, 3099-3108) is used to calculate dissociation constants (Ki).
(§8) Field performance of the HPPD enzyme, which is used as a herbicide tolerance trait may depend not only on its lack of sensitivity towards HPPD inhibiting herbicides but also on its activity. To assess the potential performance of a herbicide tolerance trait a tolerance index (TI) is calculated using the following formula: […]
(§9) Easy comparison and ranking of each trait is enabled by normalizing tolerance indexes on Arabidopsis wild-type HPPD.

For assay [2], the target named is Scenedesmus HPPD (Seq ID: 2) (Tetradesmus obliquus, UniProt A0A383WMN4, N195D). In words: In vitro HPPD activity assay. Type of assay: biochemical. On the procedure:
as §1, §2, §3, §4, §5, §6, §7, §8, §9

Assay [3] deals with transgenic Arabidopsis plants (T2) SoHPPD I419V (short). The assay is described as follows: Greenhouse spray test, injury evaluation. Format: in vivo, Arabidopsis thaliana. To be noted: 14 DAT. As for the experimental part: (§10) Non-transgenic control plants were treated in parallel and pictures taken 14 days after treatment.
(§11) For post emergence treatment, the test plants are first grown to a height of 3 to 15 cm, depending on the plant habit, and only then treated with the herbicides. For this purpose, the test plants are either sown directly and grown in the same containers, or they are first grown separately and transplanted into the test containers a few days prior to treatment.
(§12) Additionally, T1 and T2 transgenic Arabidopsis plants can be tested for improved tolerance to HPPD-inhibiting herbicides in greenhouse studies. Herbicide injury scoring is done 2-3 weeks after treatment and is rated on a scale of 0 to 100%, 0% being no injury and 100% being complete death.
(§13) Transgenic T2 Arabidopsis plants were sprayed with a range of doses from 1.56-25 g/ha of different HPPD-inhibiting herbicides and injury evaluations were taken two weeks after treatment (FIG. 4). As depicted in Table 8, control plants were severely injured by all doses of herbicides applied, with at least 58% of leaf material being damaged at the lowest application rate and 100% leaf damage at the second application rate.

The subject of assay [4] is transgenic Arabidopsis plants (T2) SoHPPD F363I (short). The assay is described as follows: Greenhouse spray test, injury evaluation. Type of assay: in vivo, Arabidopsis thaliana. To be noted: for Injury: 14 DAT; for average damage: highest application rate, average of events. On the procedure:
as §10, §11, §12, §13

Assay [5] has as its system transgenic Arabidopsis plants (T2) SoHPPD Q317H (short). The assay is described as follows: Greenhouse spray test, injury evaluation. Format: in vivo, Arabidopsis thaliana. To be noted: 14 DAT. On the procedure:
as §10, §11, §12, §13

In assay [6] the test system is WT (non-transgenic control) Arabidopsis plants. In words: Greenhouse spray test, injury evaluation. Format: in vivo, Arabidopsis thaliana. To be noted: 14 DAT. As for the experimental part: as §10, §11, §12, §13
Assay [7] addresses T1, Arabidopsis HPPD (Seq ID: 42) (Arabidopsis thaliana, UniProt P93836).
T1 construct: His6; made in house; host or cells: E. coli BL21 (DE3)
T1 sequence (P93836 1-445): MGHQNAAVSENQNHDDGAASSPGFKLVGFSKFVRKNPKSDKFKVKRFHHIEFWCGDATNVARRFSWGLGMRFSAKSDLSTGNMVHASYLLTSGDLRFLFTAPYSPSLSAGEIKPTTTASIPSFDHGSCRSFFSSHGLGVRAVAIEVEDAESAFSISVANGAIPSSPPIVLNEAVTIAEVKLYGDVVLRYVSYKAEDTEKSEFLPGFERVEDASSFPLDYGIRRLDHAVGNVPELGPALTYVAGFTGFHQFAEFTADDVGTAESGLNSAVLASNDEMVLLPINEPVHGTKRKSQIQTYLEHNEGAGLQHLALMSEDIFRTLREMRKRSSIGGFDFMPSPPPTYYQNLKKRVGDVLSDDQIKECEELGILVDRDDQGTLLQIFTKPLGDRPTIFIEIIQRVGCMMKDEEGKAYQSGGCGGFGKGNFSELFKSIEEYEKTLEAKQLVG
In words: In vitro HPPD activity assay (homogentisic acid by HPLC). Type of assay: biochemical. On the procedure: as §1, §2, §3, §4, §5
Inhibitors are dissolved in DMSO (dimethylsulfoxide) to a concentration of 0.5 mM. From this stock solution serial five-fold dilutions are prepared in DMSO, which are used in the assay. The respective inhibitor solution accounts for 1% of the assay volume. […] Activities are normalized by setting the uninhibited enzyme activity to 100%. IC50 values are calculated using non-linear regression.
Using methods which are described in the above examples or well known in the art, purified, recombinant mutated HPPD enzymes are characterized with respect to their kinetic properties and sensitivity towards HPPD inhibiting herbicides. Apparent michaelis constants (Km) and maximal reaction velocities (Vmax) are calculated by non-linear regression with the software GraphPad Prism 5 (GraphPad Software, La Jolla, USA) using a substrate inhibition model. […] Weighted means (by standard error) of Km and IC50 values are calculated from at least three independent experiments.
as §8, §9

Setting [8] is: apparent michaelis constant, substrate inhibition model, read-out: Km (4-HPP).
Setting [9] is: apparent, from Vmax assuming 100% purity.

Scenedesmus HPPD (Seq ID: 2), sequence (A0A383WMN4 entry or part of it N195D): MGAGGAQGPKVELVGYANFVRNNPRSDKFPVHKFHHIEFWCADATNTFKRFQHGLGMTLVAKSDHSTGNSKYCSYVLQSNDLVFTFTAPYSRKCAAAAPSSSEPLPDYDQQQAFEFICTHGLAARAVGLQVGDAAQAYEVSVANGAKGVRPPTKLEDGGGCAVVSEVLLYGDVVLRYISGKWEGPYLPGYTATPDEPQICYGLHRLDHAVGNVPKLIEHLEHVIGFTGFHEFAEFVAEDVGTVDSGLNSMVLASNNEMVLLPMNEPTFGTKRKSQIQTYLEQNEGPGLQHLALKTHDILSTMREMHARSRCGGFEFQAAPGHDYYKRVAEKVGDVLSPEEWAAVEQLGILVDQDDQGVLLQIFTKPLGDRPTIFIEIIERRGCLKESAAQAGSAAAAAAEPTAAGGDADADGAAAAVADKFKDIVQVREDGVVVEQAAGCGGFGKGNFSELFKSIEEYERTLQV
Scenedesmus Short HPPD (Seq ID: 4), sequence (A0A383WMN4 entry or part of it N195D/DEL398-433): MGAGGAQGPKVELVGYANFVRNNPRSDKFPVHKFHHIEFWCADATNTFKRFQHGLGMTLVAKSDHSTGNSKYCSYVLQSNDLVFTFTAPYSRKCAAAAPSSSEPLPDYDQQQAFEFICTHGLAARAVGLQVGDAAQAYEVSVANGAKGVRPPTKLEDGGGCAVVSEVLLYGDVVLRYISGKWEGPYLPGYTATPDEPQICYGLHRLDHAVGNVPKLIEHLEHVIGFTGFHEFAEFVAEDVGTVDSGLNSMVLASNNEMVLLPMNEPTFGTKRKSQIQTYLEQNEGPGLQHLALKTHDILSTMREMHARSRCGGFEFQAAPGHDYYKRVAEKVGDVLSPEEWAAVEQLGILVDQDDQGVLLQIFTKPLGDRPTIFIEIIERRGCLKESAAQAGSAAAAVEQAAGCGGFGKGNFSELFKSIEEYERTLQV

Regarding `CN(c1c(Cl)ccc(C2=C(O)c3ncccc3C(C)(C)S2(=O)=O)c1Cl)S(C)(=O)=O` [Inhibitor 3, N-[2,6-dichloro-3-(8-hydroxy-5,5-dimethyl-6,6-dioxo-thiopyrano[4,3-b]pyridin-7-yl)phenyl]-N-methyl-methanesulfonamide], the results for the Ki in assay [1] and in assay [2] were 580 nM and 110 nM, respectively.

Consider `CSc1c(C(F)(F)F)ccc(C(=O)Nc2nnnn2C)c1Cl` [Inhibitor 11, 2-chloro-3-methylsulfanyl-N-(1-methyltetrazol-5-yl)-4-(trifluoromethyl)benzamide], for which the Injury in assay [3] (Event G, 1.56 g ai/ha) was 58%; in assay [3] (Event G, 6.25 g ai/ha), 83%; in assay [3] (Event G, 25 g ai/ha), 100%; in assay [3] (Event H, 1.56 g ai/ha), 43%; in assay [3] (Event H, 6.25 g ai/ha), 100%; in assay [3] (Event H, 25 g ai/ha), 100%. The Injury in assay [4] (Event B, 1.56 g ai/ha) stood at 0%; in assay [4] (Event B, 6.25 g ai/ha) it was 0%; in assay [4] (Event B, 25 g ai/ha), 15%; in assay [4] (Event C, 1.56 g ai/ha) it was 8%; in assay [4] (Event C, 6.25 g ai/ha), 0%; in assay [4] (Event C, 25 g ai/ha) it was 5%. For the same compound, the Injury in assay [5] (Event B, 1.56 g ai/ha) is 40%; in assay [5] (Event B, 6.25 g ai/ha) it was 99%; in assay [5] (Event B, 25 g ai/ha), 100%; in assay [5] (Event C, 1.56 g ai/ha), 15%; in assay [5] (Event C, 6.25 g ai/ha), 79%; in assay [5] (Event C, 25 g ai/ha) it was 100%. Besides, the Injury in assay [6] (1.56 g ai/ha), in assay [6] (6.25 g ai/ha) and in assay [6] (25 g ai/ha) was 100% each time. In addition, the average damage in assay [4] is listed as 10%.

Turning to `CSc1c(Cl)cc(F)c(C(=O)Nc2nnnn2C)c1Cl` [Inhibitor 7, 2,4-dichloro-6-fluoro-3-methylsulfanyl-N-(1-methyltetrazol-5-yl)benzamide], the Injury in assay [3] (Event G, 1.56 g ai/ha) is 0%; in assay [3] (Event G, 6.25 g ai/ha), 28%; in assay [3] (Event G, 25 g ai/ha), 40%; in assay [3] (Event H, 1.56 g ai/ha), 5%; in assay [3] (Event H, 6.25 g ai/ha), 53%; in assay [3] (Event H, 25 g ai/ha), 93%. Moreover, the Injury in assay [4] (Event B, 1.56 g ai/ha) is 0%; in assay [4] (Event B, 6.25 g ai/ha), 5%; in assay [4] (Event B, 25 g ai/ha), 0%; in assay [4] (Event C, 1.56 g ai/ha), 0%; in assay [4] (Event C, 6.25 g ai/ha), 0%; in assay [4] (Event C, 25 g ai/ha), 0%. Moreover, the Injury is listed as 0% in assay [5] (Event B, 1.56 g ai/ha); 18% in assay [5] (Event B, 6.25 g ai/ha); 78% in assay [5] (Event B, 25 g ai/ha); 0% in assay [5] (Event C, 1.56 g ai/ha); 8% in assay [5] (Event C, 6.25 g ai/ha); 73% in assay [5] (Event C, 25 g ai/ha). Moreover, the Injury in assay [6] (1.56 g ai/ha) came to 88%; in assay [6] (6.25 g ai/ha), 100%; in assay [6] (25 g ai/ha) it was 100%. In assay [4], the average damage result is listed as “no damage”.

`O=C(O)C(=O)Cc1ccc(O)cc1` [Inhibitor 4-HPP, 4-hydroxyphenylpyruvate]: the Km in assay [7] (setting [8]) was 13 µM; in assay [1] (setting [8]), 89 µM; in assay [2] (setting [8]), 160 µM. The kcat in assay [7] (setting [9]) is 12.9 s⁻¹; in assay [1] (setting [9]), 17 s⁻¹; in assay [2] (setting [9]) it was 6 s⁻¹.

A word on the Ki: it is the equilibrium dissociation constant of an inhibitor or competing ligand from its target. Read a low Ki as higher affinity. As a reminder, the Km is the concentration of substrate that gives half-maximal velocity. One may read the kcat as the number of substrate molecules converted per active site and unit of time at saturation.
